Measured values from ChEMBL document CHEMBL1125873 (J Med Chem, 1991).

Columns and labels:
[1] = Half-life value of the compound.; assay type: ADME
[2] = Loss of first equivalent halide ion using Chloride ion electrode experiments.; assay type: ADME

In the case of O=P(O)(NCCCl)NCCCl [PALIFOSFAMIDE], the half-life [1] is reported as 1.15 h and the “k x10e3” value [2] is reported as 10 min-1.
